Data on 17 molecules can be found in patent publication US20240398812A1 (Caraway Therapeutics, Inc., priority 2021, published 2024).

The EC50 is the concentration giving half of the maximal effect.

The target in one test is human TRPML1 (Homo sapiens, UniProt Q9GZU1). As to the kind of experiment: Fluorescent TRPML1 assay (Fluo4-AM calcium fluorescence, HEK-293 Trex cells). The test is classed as cell-based. The procedure, abridged: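 Tet-inducible HEK-293 Trex cells stably expressing surface-targeted mutant human TRPML1, induced with 0.5 ug/mL doxycycline overnight, loaded with Fluo4-AM and suspended in Ringer's with 10 mM calcium. Compounds tested from 20 μM to 6 nM final, half-log steps, in triplicate; fluorescence (ex 480/em 540) normalised to plate controls, EC50 by non-linear regression.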

Another test has as its target T1, TRPML3 (Homo sapiens, UniProt Q8TDD5).
T1 construct: expressed in transfected cells
T1 sequence (Q8TDD5 1-553): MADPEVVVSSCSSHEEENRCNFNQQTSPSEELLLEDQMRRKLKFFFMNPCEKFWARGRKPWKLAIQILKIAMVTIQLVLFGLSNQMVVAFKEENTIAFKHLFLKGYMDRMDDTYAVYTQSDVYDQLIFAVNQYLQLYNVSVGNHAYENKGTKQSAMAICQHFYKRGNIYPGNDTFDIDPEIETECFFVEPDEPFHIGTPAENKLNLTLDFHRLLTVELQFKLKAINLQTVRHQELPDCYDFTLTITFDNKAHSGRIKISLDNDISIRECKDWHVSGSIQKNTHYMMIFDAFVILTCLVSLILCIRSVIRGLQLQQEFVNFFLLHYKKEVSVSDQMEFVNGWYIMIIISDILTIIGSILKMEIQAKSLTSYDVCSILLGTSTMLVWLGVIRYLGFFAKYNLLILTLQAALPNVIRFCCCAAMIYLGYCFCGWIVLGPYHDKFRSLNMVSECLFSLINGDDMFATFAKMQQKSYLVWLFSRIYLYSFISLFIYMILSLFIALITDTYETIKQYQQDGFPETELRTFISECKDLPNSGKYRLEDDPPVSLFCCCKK
The experiment in a line: Fluorescent TRPML3 assay (as for TRPML1). The test is classed as cell-based. The gist of the method:
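HEK-293 Trex cells with tet-inducible (0.5 ug/mL doxycycline, overnight) surface-targeted mutant channel, Fluo4-AM loaded, suspended in Ringer's with 10 mM calcium. Compounds tested 20 µM to 6 nM final, half-log steps, triplicate; fluorescence at ex 480/em 540 nm. EC50 by non-linear regression of percent activity versus plate controls.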

Molecules are shown by their SMILES.

Chain of human TRPML1 (Q9GZU1 whole entry L15A/L16A/L577A/L578A, form open): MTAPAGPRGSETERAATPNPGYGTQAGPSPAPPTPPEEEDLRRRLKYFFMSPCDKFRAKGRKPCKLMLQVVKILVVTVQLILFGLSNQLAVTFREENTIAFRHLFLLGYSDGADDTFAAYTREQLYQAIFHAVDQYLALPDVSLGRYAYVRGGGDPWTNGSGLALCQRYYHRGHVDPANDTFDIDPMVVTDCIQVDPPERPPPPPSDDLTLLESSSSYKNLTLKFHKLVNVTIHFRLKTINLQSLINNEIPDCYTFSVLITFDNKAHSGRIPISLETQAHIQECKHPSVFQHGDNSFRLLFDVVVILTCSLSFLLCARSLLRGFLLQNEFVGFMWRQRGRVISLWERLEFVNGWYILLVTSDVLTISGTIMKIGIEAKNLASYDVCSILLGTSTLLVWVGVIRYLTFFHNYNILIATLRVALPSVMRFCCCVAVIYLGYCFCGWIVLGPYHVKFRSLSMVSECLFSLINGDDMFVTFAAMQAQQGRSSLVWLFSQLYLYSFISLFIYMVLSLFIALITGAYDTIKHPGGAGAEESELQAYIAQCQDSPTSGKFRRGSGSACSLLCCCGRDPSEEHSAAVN

As for `C[C@H]1CN(C(=O)C(C)(C)C)CCN1c1nccc2c1c(C1CC1)cn2-c1cccc(F)c1` [Compound 228, (S)-1-(4-(3-cyclopropyl-1-(3-fluorophenyl)-1H-pyrrolo[3,2-c]pyridin-4-yl)-3-methylpiperazin-1-yl)-2,2-dimethylpropan-1-one], the EC50 is under 100 nM on human TRPML1 (Table 3, compounds 201-283) and under 100 nM on TRPML3 (Table 3, compounds 201-283).

With `CC(C)C(=O)N1CCN(c2ncnc3c2c(-c2ccccc2F)cn3-c2cc(C#N)ccn2)CC1` [Compound 106, 2-(5-(2-fluorophenyl)-4-(4-isobutyrylpiperazin-1-yl)-7H-pyrrolo[2,3-d]pyrimidin-7-yl)isonicotinonitrile], the 50% effective concentration (EC50) on human TRPML1 (Table 3, compounds 101-177) was 100 to 500 nM; on TRPML3 (Table 3, compounds 101-177), under 100 nM.

For the molecule `C[C@@H]1CN(c2ncnc3c2c(C2CC2)cn3-c2cc(F)cc(F)c2)[C@@H](C)CN1C(=O)C(C)(C)C` [Compound 205, 1-((2R,5S)-4-(5-cyclopropyl-7-(3,5-difluorophenyl)-7H-pyrrolo[2,3-d]pyrimidin-4-yl)-2,5-dimethylpiperazin-1-yl)-2,2-dimethylpropan-1-one], the EC50 on human TRPML1 (Table 3, compounds 201-283) is under 100 nM; on TRPML3 (Table 3, compounds 201-283), 100 to 500 nM.

For the molecule `CC(C)C(=O)N1CCN(c2ncnc3c2c(-c2ccccc2F)cn3-c2nccc(C#N)n2)[C@@H](C)C1` [Compound 156, (S)-2-(5-(2-fluorophenyl)-4-(4-isobutyryl-2-methylpiperazin-1-yl)-7H-pyrrolo[2,3-d]pyrimidin-7-yl)pyrimidine-4-carbonitrile], the half-maximal effective concentration (EC50) was in the range of 500 to 2000 nM at human TRPML1 (Table 3, compounds 101-177) and 500 to 2000 nM on TRPML3 (Table 3, compounds 101-177).

Regarding `C[C@@H]1CN(c2ncnc3c2c(N2CCC2)cn3-c2cc(F)cc(F)c2)[C@@H](C)CN1C(=O)C(C)(C)C` [Compound 217, 1-((2R,5S)-4-(5-(azetidin-1-yl)-7-(3,5 difluorophenyl)-7H-pyrrolo[2,3-d]pyrimidin-4-yl)2,5-dimethylpiperazin-1-yl)-2,2-dimethylpropan-1-one], the EC50 is under 100 nM at human TRPML1 (Table 3, compounds 201-283) and 100 to 500 nM at TRPML3 (Table 3, compounds 201-283).

Regarding `CC(C)C(=O)N1CCN(c2ncnc3c2c(C2CCC2)cn3-c2cc(C#N)ccn2)[C@@H](C)C1` [Compound 150, (S)-2-(5-cyclobutyl-4-(4-isobutyryl-2-methylpiperazin-1-yl)-7H-pyrrolo[2,3-d]pyrimidin-7-yl)isonicotinonitrile], the EC50 on human TRPML1 (Table 3, compounds 101-177) is 500 to 2000 nM; at TRPML3 (Table 3, compounds 101-177) it was 500 to 2000 nM.

Turning to `CC(C)C(=O)N1C[C@H](C)N(c2ncnc3c2c(N2CCC2)cn3-c2cc(C#N)ccn2)C[C@H]1C` [Compound 275, 2-(5-(azetidin-1-yl)-4-((2S,5R)-4-isobutyryl-2,5-dimethylpiperazin-1-yl)-7H-pyrrolo[2,3-d]pyrimidin-7-yl)isonicotinonitrile], the concentration giving a half-maximal response (EC50) at human TRPML1 (Table 3, compounds 201-283) is under 100 nM; on TRPML3 (Table 3, compounds 201-283), 100 to 500 nM.

Turning to `C[C@H]1CN(C(=O)CC(C)(C)C)CCN1c1ncnc2c1c(C1CC1)cn2-c1cc(C#N)ccn1` [Compound 136, (S)-2-(5-cyclopropyl-4-(4-(3,3-dimethylbutanoyl)-2-methylpiperazin-1-yl)-7H-pyrrolo[2,3-d]pyrimidin-7-yl)isonicotinonitrile], the EC50 at human TRPML1 (Table 3, compounds 101-177) lay in the range of 100 to 500 nM; on TRPML3 (Table 3, compounds 101-177), 100 to 500 nM.

`Cc1nccnc1-c1cn(-c2cc(F)cc(F)c2)c2ncnc(N3C[C@@H](C)N(C(=O)CC(C)C)C[C@@H]3C)c12` [Compound 177, 1-((2R,5S)-4-(7-(3,5-difluorophenyl)-5-(3-methylpyrazin-2-yl)-7H-pyrrolo[2,3-d]pyrimidin-4-yl)-2,5-dimethylpiperazin-1-yl)-3-methylbutan-1-one]: the EC50 at human TRPML1 (Table 3, compounds 101-177) was 500 to 2000 nM; at TRPML3 (Table 3, compounds 101-177) it was over 2000 nM.

As to `CCCN(CC)c1cn(-c2cc(C#N)ccn2)c2ncnc(N3CCN(C(=O)C(C)C)C[C@@H]3C)c12` [Compound 163, (S)-2-(5-(ethyl(propyl)amino)-4-(4-isobutyryl-2-methylpiperazin-1-yl)-7H-pyrrolo[2,3-d]pyrimidin-7-yl)isonicotinonitrile], the EC50 on human TRPML1 (Table 3, compounds 101-177) is under 100 nM; on TRPML3 (Table 3, compounds 101-177), 100 to 500 nM.

In the case of `C[C@H]1CN(C(=O)C(C)(C)C)CCN1c1nccc2c1c(N1CCC1)cn2-c1cccc(F)c1` [Compound 227, (S)-1-(4-(3-(azetidin-1-yl)-1-(3-fluorophenyl)-1H-pyrrolo[3,2-c]pyridin-4-yl)-3-methylpiperazin-1-yl)-2,2-dimethylpropan-1-one], the EC50 was under 100 nM at human TRPML1 (Table 3, compounds 201-283) and under 100 nM at TRPML3 (Table 3, compounds 201-283).

Consider `C[C@@H]1CN(c2ncnc3c2c(C(F)(F)F)cn3-c2cncc(C#N)c2)[C@@H](C)CN1C(=O)C(C)(C)C` [Compound 224, 5-(4-((2S,5R)-2,5-dimethyl-4-pivaloylpiperazin-1-yl)-5-(trifluoromethyl)-7H-pyrrolo[2,3-d]pyrimidin-7-yl)nicotinonitrile], for which the EC50 was under 100 nM at human TRPML1 (Table 3, compounds 201-283) and 500 to 2000 nM on TRPML3 (Table 3, compounds 201-283).

Regarding `C[C@H]1CN(C(=O)C2(C)CC2)CCN1c1ncnc2c1c(-c1ccccc1F)cn2-c1cc(C#N)ccn1` [Compound 112, (S)-2-(5-(2-fluorophenyl)-4-(2-methyl-4-(1-methylcyclopropane-1-carbonyl)piperazin-1-yl)-7H-pyrrolo[2,3-d]pyrimidin-7-yl)isonicotinonitrile], the EC50 was under 100 nM at human TRPML1 (Table 3, compounds 101-177) and under 100 nM on TRPML3 (Table 3, compounds 101-177).

Consider `C[C@H]1CN(C(=O)CCC(F)(F)F)CCN1c1ncnc2c1c(-c1ccccc1F)cn2-c1cc(C#N)ccn1` [Compound 135, (S)-2-(5-(2-fluorophenyl)-4-(2-methyl-4-(4,4,4-trifluorobutanoyl)piperazin-1-yl)-7H-pyrrolo[2,3-d]pyrimidin-7-yl)isonicotinonitrile], for which the EC50 on human TRPML1 (Table 3, compounds 101-177) is under 100 nM; at TRPML3 (Table 3, compounds 101-177), 100 to 500 nM.

With `C[C@@H]1CN(c2ncnc3c2c(N2CCC2)cn3-c2cccc(F)c2)[C@@H](C)CN1C(=O)C(C)(C)C` [Compound 219, 1-((2R,5S)-4-(5-(azetidin-1-yl)-7-(3-fluorophenyl)-7H-pyrrolo[2,3-d]pyrimidin-4-yl)2,5-dimethylpiperazin-1-yl)-2,2-dimethylpropan-1-one], the EC50 at human TRPML1 (Table 3, compounds 201-283) is under 100 nM; on TRPML3 (Table 3, compounds 201-283), under 100 nM.

As to `N#Cc1ccnc(-n2cc(-c3ccccc3F)c3c(N4CCN(C(=O)C5CC5)CC4)ncnc32)c1` [Compound 110, 2-(4-(4-(cyclopropanecarbonyl)piperazin-1-yl)-5-(2-fluorophenyl)-7H-pyrrolo[2,3-d]pyrimidin-7-yl)isonicotinonitrile], the EC50 at human TRPML1 (Table 3, compounds 101-177) fell in the range of 100 to 500 nM; on TRPML3 (Table 3, compounds 101-177) it was 100 to 500 nM.

Consider `CC(C)C(=O)N1CCN(c2ncnc3c(-c4cc(C#N)ccn4)cn(-c4ccccc4F)c23)[C@@H](C)C1` [Compound 212, (S)-2-(5-(2-fluorophenyl)-4-(4-isobutyryl-2-methylpiperazin-1-yl)-5H-pyrrolo[3,2-d]pyrimidin-7-yl)isonicotinonitrile], for which the EC50 at human TRPML1 (Table 3, compounds 201-283) lay in the range of 100 to 500 nM; at TRPML3 (Table 3, compounds 201-283) it was 100 to 500 nM.
